{"source": "patent US9656963B2", "about": "(BRISTOL-MYERS SQUIBB COMPANY, priority 2012, dated 2017)", "data": [{"target": "T1, hGPR40 (Homo sapiens, UniProt O14842)", "T1 construct": "3x FLAG; expressed in transfected cells", "T1 sequence (O14842 whole entry)": "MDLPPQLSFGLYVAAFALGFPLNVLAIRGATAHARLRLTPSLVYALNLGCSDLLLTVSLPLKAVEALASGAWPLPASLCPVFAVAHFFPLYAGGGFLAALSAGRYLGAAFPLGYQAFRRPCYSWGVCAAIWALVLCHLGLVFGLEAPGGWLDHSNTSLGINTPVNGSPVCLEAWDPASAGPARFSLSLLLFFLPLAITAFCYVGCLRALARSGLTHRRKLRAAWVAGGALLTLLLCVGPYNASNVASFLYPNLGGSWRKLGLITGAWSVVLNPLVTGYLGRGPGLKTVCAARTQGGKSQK", "assay": "FDSS-Based Intracellular Calcium Assay", "format": "cell-based", "details": "cells expressing GPR40, intracellular Ca2+ response", "outline": "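Flag-tagged GPR40-expressing cells plated overnight in serum-free, phenol red-free DMEM. Compounds added from DMSO stocks, diluted in assay buffer and added as 3x solution. Intracellular Ca^2+ flux read by fluorescence on an FDSS reader.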", "units": {"EC50": "nM"}, "values": [{"smiles": "COc1ccc(F)c(-c2ccc(Cc3ccc(N4N=C(C(F)(F)F)C(C)C4CC(=O)O)cc3)c(Cl)c2)c1", "note": "(single isomer, unassigned) [Example 60, Isomer 2, 22-(1-(4-((3-chloro-2′-fluoro-5′-methoxy-[1,1′-biphenyl]-4-yl)methyl)phenyl)-4-methyl-3-(trifluoromethyl)-4,5-dihydro-1H-pyrazol-5-yl)acetic acid]", "EC50": 40}, {"smiles": "Cc1cc(Oc2ccc(N3N=C(C#N)CC3CC(=O)O)cc2)c(C)cc1Br", "note": "(racemic) [Example 31, 2-(1-(4-(4-bromo-2,5-dimethylphenoxy)phenyl)-3-cyano-4,5-dihydro-1H-pyrazol-5-yl)acetic acid]", "EC50": 360}, {"smiles": "Cc1ccccc1Oc1ccc(N2N=C(C(=O)N(C)C)CC2CC(=O)O)cc1", "note": "(racemic) [Example 6, 2-(3-(dimethylcarbamoyl)-1-(4-(o-tolyloxy)phenyl)-4,5-dihydro-1H-pyrazol-5-yl)acetic acid]", "EC50": 1810}, {"smiles": "COc1ccc(F)c(-c2cc(C)c(Cc3ccc(N4N=C(C(F)(F)F)CC4CC(=O)O)cc3)c(F)c2)c1", "note": "(single isomer, unassigned) [Example 21, Isomer 1, 2-(1-(4-((2′,3-difluoro-5′-methoxy-5-methylbiphenyl-4-yl)methyl)phenyl)-3-(trifluoromethyl)-4,5-dihydro-1H-pyrazol-5-yl)acetic acid]", "EC50": 500}, {"smiles": "COc1ccc(F)c(-c2ccc(Oc3ccc(N4N=C(c5ncco5)CC4CC(=O)O)cc3)c(C)c2)c1", "note": "(single isomer, unassigned) [Example 8, Isomer 2, 2-(1-(4-(2′-fluoro-5′-methoxy-3-methylbiphenyl-4-yloxy)phenyl)-3-(oxazol-2-yl)-4,5-dihydro-1H-pyrazol-5-yl)acetic acid]", "EC50": 1160}, {"smiles": "COc1cccc(-c2ccc(Cc3ccc(N4N=C(C(F)(F)F)CC4CC(=O)O)cc3)c(C)c2)c1", "note": "(single isomer, unassigned) [Example 26, Isomer 2, 2-(1-(4-((3′-methoxy-3-methylbiphenyl-4-yl)methyl)phenyl)-3-(trifluoromethyl)-4,5-dihydro-1H-pyrazol-5-yl)acetic acid]", "EC50": 120}, {"smiles": "Cc1cc(Br)ccc1Oc1ccc(N2N=C(C(F)(F)F)CC2CC(=O)O)cc1", "note": "(racemic) [Example 13, 2-(1-(4-(4-bromo-2-methylphenoxy)phenyl)-3-(trifluoromethyl)-4,5-dihydro-1H-pyrazol-5-yl)acetic acid]", "EC50": 160}, {"smiles": "COc1ccc(F)c(-c2ccc(Cc3ccc(N4N=C(c5ccn(C)n5)C(C)C4CC(=O)O)cc3)c(C)c2)c1", "note": "(single isomer, unassigned) [Example 55, Isomer 2, 2-((1-(4-((2′-fluoro-5′-methoxy-3-methyl-[1,1′-biphenyl]-4-yl)methyl)phenyl)-1′,4-dimethyl-4,5-dihydro-1H,1′H-[3,3′-bipyrazol]-5-yl)acetic acid, trans-diastereomer]", "EC50": 230}, {"smiles": "C[C@@H]1C(C(F)(F)F)=NN(c2ccc(CCCc3ccccc3)cc2)[C@H]1CC(=O)O", "note": "[Example 71, 2-((4S,5S)-4-methyl-1-(4-(3-phenylpropyl)phenyl)-3-(trifluoromethyl)-4,5-dihydro-1H-pyrazol-5-yl)acetic acid]", "EC50": 5760}, {"smiles": "COc1ccc(F)c(-c2ccc(Cc3ccc(N4N=C(c5ccc(Cl)cc5)[C@@H](C)[C@@H]4CC(=O)O)cc3)c(C)c2)c1", "note": "(single isomer, unassigned) [Example 66, Isomer 1]", "EC50": 13}, {"smiles": "COc1ccc(Cc2ccc(N3N=C(C#N)CC3CC(=O)O)cc2)c(C)c1", "note": "(racemic) [Example 37, 2-(3-cyano-1-(4-(4-methoxy-2-methylbenzyl)phenyl)-4,5-dihydro-1H-pyrazol-5-yl)acetic acid]", "EC50": 150}, {"smiles": "CCC1C(C(F)(F)F)=NN(c2ccc(Cc3ccc(-c4cc(OC)ccc4F)cc3C)cc2)C1CC(=O)O", "note": "(single isomer, unassigned) [Example 44, Isomer 1, 2-(4-ethyl-1-(4-((2′-fluoro-5′-methoxy-3-methylbiphenyl-4-yl)methyl)phenyl)-3-(trifluoromethyl)-4,5-dihydro-1H-pyrazol-5-yl)acetic acid]", "EC50": 1310}, {"smiles": "COc1ccc(F)c(-c2ccc(Cc3ccc(N4N=C(C(F)(F)F)C(CO)C4CC(=O)O)cc3)c(C)c2)c1", "note": "(single isomer, unassigned) [Example 53, Isomer 2, 2-(1-(4-((2′-fluoro-5′-methoxy-3-methyl-[1,1′-biphenyl]-4-yl)methyl)phenyl)-4-(hydroxymethyl)-3-(trifluoromethyl)-4,5-dihydro-1H-pyrazol-5-yl)acetic acid, trans-diastereomer]", "EC50": 1100}, {"smiles": "Cc1cc(Cc2ccc(N3N=C(C(F)(F)F)CC3CC(=O)O)cc2)ccc1-c1cc(C(F)(F)F)ccc1F", "note": "(racemic) [Example 24, 2-(1-(4-((2′-fluoro-2-methyl-5′-(trifluoromethyl)biphenyl-4-yl)methyl)phenyl)-3-(trifluoromethyl)-4,5-dihydro-1H-pyrazol-5-yl)acetic acid]", "EC50": 570}, {"smiles": "COc1ccc(F)c(-c2ccc(Cc3ccc(N4N=C(c5ccn(C)n5)C(C)C4CC(=O)O)cc3)c(C)c2)c1", "note": "(single isomer, unassigned) [Example 55, Isomer 1, 2-((1-(4-((2′-fluoro-5′-methoxy-3-methyl-[1,1′-biphenyl]-4-yl)methyl)phenyl)-1′,4-dimethyl-4,5-dihydro-1H,1′H-[3,3′-bipyrazol]-5-yl)acetic acid, trans-diastereomer]", "EC50": 5630}, {"smiles": "COCC1C(C(F)(F)F)=NN(c2ccc(Cc3ccc(-c4cc(OC)ccc4F)cc3C)cc2)C1CC(=O)O", "note": "(single isomer, unassigned) [Example 48, Isomer 2, 2-(1-(4-((2′-fluoro-5′-methoxy-3-methylbiphenyl-4-yl)methyl)phenyl)-4-(methoxymethyl)-3-(trifluoromethyl)-4,5-dihydro-1H-pyrazol-5-yl)acetic acid]", "EC50": 920}, {"smiles": "COc1ccc(F)c(-c2ccc(Cc3ccc(N4N=C(c5ccccc5)C(C)C4CC(=O)O)cc3)c(C)c2)c1", "note": "(single isomer, unassigned) [Example 59, Isomer 2, 2-(1-(4-((2′-fluoro-5′-methoxy-3-methyl-[1,1′-biphenyl]-4-yl)methyl)phenyl)-4-methyl-3-phenyl-4,5-dihydro-1H-pyrazol-5-yl)acetic acid]", "EC50": 6}, {"smiles": "Cc1ccccc1Oc1ccc(N2N=C(C#N)CC2CC(=O)O)cc1", "note": "(single isomer, unassigned) [Example 3, Isomer 2, 2-(3-cyano-1-(4-(o-tolyloxy)phenyl)-4,5-dihydro-1H-pyrazol-5-yl)acetic acid]", "EC50": 560}, {"smiles": "COc1ccc(F)c(-c2ccc(Cc3ccc(N4N=C(C(F)(F)F)C(C)(C)C4CC(=O)O)cc3)c(C)c2)c1", "note": "(single isomer, unassigned) [Example 50, Isomer 1, 2-(1-(4-((2′-fluoro-5′-methoxy-3-methylbiphenyl-4-yl)methyl)phenyl)-4,4-dimethyl-3-(trifluoromethyl)-4,5-dihydro-1H-pyrazol-5-yl)acetic acid]", "EC50": 220}, {"smiles": "C[C@@H]1C(C(F)(F)F)=NN(c2ccc(CCCc3cccc(F)c3)cc2)[C@H]1CC(=O)O", "note": "[Example 72, 2-((4S,5S)-1-(4-(3-(3-fluorophenyl)propyl)phenyl)-4-methyl-3-(trifluoromethyl)-4,5-dihydro-1H-pyrazol-5-yl)acetic acid]", "EC50": 7020}, {"smiles": "Cc1cc(Cc2ccc(N3N=C(C(F)(F)F)CC3CC(=O)O)cc2)ccc1Br", "note": "(racemic) [Example 18, 2-(1-(4-(4-bromo-3-methylbenzyl)phenyl)-3-(trifluoromethyl)-4,5-dihydro-1H-pyrazol-5-yl)acetic acid]", "EC50": 455}, {"smiles": "COc1ccc(F)c(-c2ccc(Cc3ccc(N4N=C(C(F)(F)F)C(C)(C)C4CC(=O)O)cc3)c(C)c2)c1", "note": "(single isomer, unassigned) [Example 50, Isomer 2, 2-(1-(4-((2′-fluoro-5′-methoxy-3-methylbiphenyl-4-yl)methyl)phenyl)-4,4-dimethyl-3-(trifluoromethyl)-4,5-dihydro-1H-pyrazol-5-yl)acetic acid]", "EC50": 1340}, {"smiles": "COc1ccc(F)c(-c2cc(C)c(Cc3ccc(N4N=C(C(F)(F)F)CC4CC(=O)O)cc3)c(F)c2)c1", "note": "(single isomer, unassigned) [Example 21, Isomer 2, 2-(1-(4-((2′,3-difluoro-5′-methoxy-5-methylbiphenyl-4-yl)methyl)phenyl)-3-(trifluoromethyl)-4,5-dihydro-1H-pyrazol-5-yl)acetic acid]", "EC50": 270}, {"smiles": "COc1ccc(F)c(-c2ccc(Cc3ccc(N4N=C(c5ccc(Cl)cc5)[C@@H](C)[C@@H]4CC(=O)O)cc3)c(C)c2)c1", "note": "(single isomer, unassigned) [Example 66, isomer 2]", "EC50": 510}, {"smiles": "COc1ccc(F)c(-c2ccc(Cc3ccc(N4N=C(c5ccccn5)C(C)C4CC(=O)O)cc3)c(C)c2)c1", "note": "(single isomer, unassigned) [example 62, isomer 2, 2-(1-(4-((2′-fluoro-5′-methoxy-3-methylbiphenyl-4-yl)methyl)phenyl)-4-methyl-3-(pyridin-2-yl)-4,5-dihydro-1H-pyrazol-5-yl)acetic acid]", "EC50": 63}, {"smiles": "COc1ccc(F)c(-c2ccc(Cc3ccc(N4N=C(c5ccccn5)C(C)C4CC(=O)O)cc3)c(C)c2)c1", "note": "(single isomer, unassigned) [Example 62, isomer 1, 2-(1-(4-((2′-fluoro-5′-methoxy-3-methylbiphenyl-4-yl)methyl)phenyl)-4-methyl-3-(pyridin-2-yl)-4,5-dihydro-1H-pyrazol-5-yl)acetic acid]", "EC50": 1600}, {"smiles": "Cc1cc(-c2cnccn2)ccc1Cc1ccc(N2N=C(C(F)(F)F)[C@@H](C)[C@@H]2CC(=O)O)cc1", "note": "[Example 76, 2-((4S,5 S)-4-methyl-1-(4-(2-methyl-4-(pyrazin-2-yl)benzyl)phenyl)-3-(trifluoromethyl)-4,5-dihydro-1H-pyrazol-5-yl)acetic acid]", "EC50": 1620}, {"smiles": "Cc1ccccc1Oc1ccc(N2N=C(C(F)(F)F)CC2CC(=O)O)cc1", "note": "(single isomer, unassigned) [Example 11, Isomer 1, 2-(1-(4-(o-tolyloxy)phenyl)-3-(trifluoromethyl)-4,5-dihydro-1H-pyrazol-5-yl)acetic acid]", "EC50": 70}]}]}
